The subject of this test is human 3rd molar coronal dentin. Description: Dentinal flow rate measurement (Pashley-like flow cell). The note with it: repeated deposition. The method, then:
Volumetric flow rates through cross-sections of human 3rd molar coronal dentin are measured before and after treatment using a flow cell apparatus (FIG. 6). Twenty two coronal dentin sections of human molars are obtained by cross sectional cutting with a diamond blade saw to a thickness between 0.80 and 1.00 mm. The sections resemble disks due to the circular nature of molars. The center of the disk is dentin 90 with a thin ring of enamel around the circumference (FIG. 6). The cut dentin disks are then placed in 6.0% citric acid for two minutes followed by sonication in water and subsequent rinsing to remove the smear layer created by the cutting process. The removal of the smear layer with citric acid is an effective and well known technique to produce open dentinal tubules representative of sensitive dentin found in-vivo. […]
Each dentin disk section is centered over the opening with flat washers 110 and bushing 120 on each side, making sure that the section spanned the opening with at least 1 mm overlap around the entire perimeter. […] The liquid velocity is recorded by timing the movement of the bubble within the supply line. […] Using a digital stop watch, elapsed times are recorded over 4 equidistant points along the ruler to establish the average rate the bubble travels and to ensure the velocity is constant. […]

Structures are written as SMILES.

As to `O=C(O)C(=O)O` [oxalate], the “Flow rates through dentin” value is listed as “significantly reduce flow rates through dentin”.
